Laboratory results reported in PMC12462901 (Journal of the American Chemical Society, 2025).
Like-named read-outs stand apart in the source and are kept apart here.

Assays:
[1] = tested on: HeLa human cervical carcinoma cells (CCL-2); experiment: cellular potency in HeLa cells; type: cell-based; conditions: read-out: IC50 value (cellular potency)
logD = type: physicochemical; conditions: relative to parent atuveciclib
kinetic solubility = type: physicochemical; conditions: compared to atuveciclib
[2] = tested on: Madin-Darby canine kidney (MDCK) cells; experiment: permeability in MDCK cells; type: in vitro ADME; conditions: compared to the parent compound

SMILES | IC50 ([1]; HeLa human cervical carcinoma cells (CCL-2)) | logD (logD) | kinetic solubility (kinetic solubility) | permeability [2] | IC50 ([1]; Homo sapiens, HeLa)
COc1cc(F)ccc1-c1ncnc(Nc2cccc(C[S@@](C)(=O)=NC3CCC3)c2)n1 [Compound 57] | 700 nM | increase in logD | notable improvement compared to atuveciclib | enhanced permeability compared to the parent compound | –
COc1cc(F)ccc1-c1ncnc(Nc2cccc(C[S@](C)(=N)=O)c2)n1 [atuveciclib, reference compound] | – | – | – | – | 300 nM
